Assay results published in patent publication US20170239212A1, “[…] AND USE THEREOF AS ANTIVIRAL AGENTS” (priority 2014, published 2017).

Key:
[1] = test system: LNCaP human prostate cancer cells; assay: Proliferation and morphology of LNCaP cells (Incucyte confluency imaging); type: cell-based; conditions: for Persistence of early morphological change (cell flattening) in LNCaP cells: Incucyte images, 0-9 hrs after treatment
Method: (§1) FIGS. 12A-12D show the effect of different compounds on the proliferation and apoptosis of LNCaP cells. […] Time-elapsed images were taken with an Incucyte imaging system every hour for 4 days. The proliferation of LNCaP cells is presented as increase in confluency (read by the instrument) at 80 hrs. Data represent the means±SEM of three independent experiments. […] Apoptosis was measured 2 days after treatment by flow cytometry using 7-AAD and Yo-Pro-1 as described in Materials and Methods. Data represent the means±SEM of three independent experiments.
FIGS. 13A and 13B show the proliferation and morphology of LNCaP cells detected by Incucyte. LNCaP cells were treated with DMSO as control, 300 nM PMA, 1000 nM bryostatin 1 or the bryologue MERLE 21, or with 300 nM PMA in combination with 1000 nM bryostatin 1 or the bryologue MERLE 21. Time-elapsed images were taken by the Incucyte imaging system every hour. […] The arrow indicates the time of treatment. Data are representative of three independent experiments.
The extent of confluency of LNCaP cells (from ATCC, Manassas, Va.) and the morphological changes after treatment were followed in real time using Incucyte (Essen Instruments, Ann Arbor, Mich.). Images of LNCaP cells plated into 24 well plates were taken every 1 hour by the instrument before and after treatment for a total of 4 days. The confluency of the cells was calculated by the instrument's program. The proliferation of LNCaP cells was expressed as the difference in cell confluency before and after treatment.

[2] = test system: PKC delta; assay: Phosphorylation of PKC delta at Y311 in LNCaP cells (western blot); type: cell-based, human; conditions: 2, 5 or 8 hrs treatment
Method: FIGS. 14A-14C show the induction of cFos and phosphorylation of PKC6 at Y311 in LNCaP cells. […] The proteins from the lysates were separated by 10% SDS-PAGE, electroblotted to nitrocellulose membranes and probed with anti-cFos primary and anti-rabbit secondary antibodies, followed by ECL visualization. Data are representative of four independent experiments. […] The cFos signal was normalized to the 3-actin signal to correct for loading and the response induced by 100 nM PMA at 2 hrs was taken as 100%. Data represent the means±SEM of four independent experiments. […] Data represent the means±SEM of three independent experiments.
LNCaP cells treated for 48 hours with the different drugs or with DMSO as control were washed and re-suspended in phosphate buffered saline. Yo-Pro-1 (Invitrogen, Carlsbad, Calif.) was added to a final concentration of 1 μM and the cells were incubated for 20 min at 4° C. in the dark. 7-Aminoactinomycin D (7-AAD) (Invitrogen, Carlsbad, Calif.) was then added at a 5 μg/mL final concentration 10 minutes before analysis by flow cytometry using the FACSCalibur system (Becton Dickinson, Mountain View, Calif.). Data were analyzed with FlowJo 7 (Tree Star Inc., Ashland, Oreg.). The Yo-Pro-1 positive cells were considered apoptotic and were expressed as % of total cells. […]

[3] = test system: LNCaP human prostate cancer cells; assay: Apoptosis of LNCaP cells (flow cytometry, Yo-Pro-1/7-AAD); type: cell-based; conditions: 48 hr; for Induction of apoptosis in LNCaP cells: compound alone
Method: as §1
LNCaP cells treated for 48 hours with the different drugs or with DMSO as control were washed and re-suspended in phosphate buffered saline. Yo-Pro-1 (Invitrogen, Carlsbad, Calif.) was added to a final concentration of 1 μM and the cells were incubated for 20 min at 4° C. in the dark. 7-Aminoactinomycin D (7-AAD) (Invitrogen, Carlsbad, Calif.) was then added at a 5 μg/mL final concentration 10 minutes before analysis by flow cytometry using the FACSCalibur system (Becton Dickinson, Mountain View, Calif.). Data were analyzed with FlowJo 7 (Tree Star Inc., Ashland, Oreg.). The Yo-Pro-1 positive cells were considered apoptotic and were expressed as % of total cells. Western blot analysis of treated LNCaP cell lysates was performed as described previously using rabbit anti-cFos, rabbit anti-PKC delta, rabbit anti-phospho-tyrosine 311 of PKC delta or rabbit anti-3-actin antibodies.

[4] = test system: U937 cells; assay: Inhibition of U937 cell proliferation; type: cell-based, human; conditions: for Block of PMA inhibition of U937 cell proliferation: 10 nM PMA with different concentrations of compound; for Inhibition of U937 cell proliferation (total cells as % of control): compound alone, 72 hours
Method: U937 cells (Sundstrom, C.; Nilsson, K.: Establishment and characterization of a human histiocytic lymphoma cell line (U-937). Int. J. Cancer 1976, 17: 565-577), purchased from ATCC (Manassas, Va.) and cultured in RPMI-1640 medium supplemented with 10% FBS (ATCC, Manassas, Va.), were plated in 35 mm dishes at a density of 2×10^5 living cells/ml and treated with different concentrations of the drugs or DMSO. After 72 hours, the number of cells in the supernatant (non-attached cells) and the number of attached cells (after trypsinization) were counted using a Beckman particle counter (Beckman Coulter Inc., Fullerton, Calif.). The number of attached cells is expressed as percent of total cells (FIGS. 8-10).
U937 cells were treated with PMA (0.1-100 nM), bryostatin 1 (1-1000 nM), the indicated compound (1-1000 nM), 10 nM PMA with different concentrations of bryostatin 1 (1-1000 nM) or 10 nM PMA with different concentrations of indicated compound (1-1000 nM). The number of attached and non-attached cells was counted and the number of total cells was expressed as % of control. The bars and error bars represent the average and the standard error of the mean of five independent experiments (FIGS. 8-10).
(§2) U937 cells (Sundstrom and Nilsson, 1976), purchased from ATCC (Manassas, Va.) and cultured in RPMI-1640 medium supplemented with 10% FBS (ATCC, Manassas, Va.), were plated in 35 mm dishes at a density of 1×10^5 living cells/ml and treated with different concentrations of the drugs or DMSO. After 72 hours, the number of cells in the supernatant (non-attached cells) and the number of attached cells (after trypsinization) were counted using a particle counter. The number of attached cells is expressed as percent of total cells.
U937 cells were treated with PMA (0.01-100 nM), bryostatin 1 (0.1-1000 nM), analogue 12 (MERLE 28) (0.1-1000 nM), 10 nM PMA with different concentrations of bryostatin 1 (0.1-1000 nM) or 10 nM PMA with different concentrations of analogue 12 (0.1-1000 nM). The numbers of attached and non-attached cells were counted and the number of total cells was expressed as % of control. The bars and error bars represent the average and the standard error of the mean of at least three independent experiments.
as §2
U937 cells were treated with PMA (0.1-100 nM), bryostatin 1 (1-1000 nM), the indicated compound (1-1000 nM), 10 nM PMA with different concentrations of bryostatin 1 (1-1000 nM) or 10 nM PMA with different concentrations of indicated compound (1-1000 nM). The number of attached and non-attached cells was counted and the number of total cells was expressed as % of control. The bars and error bars represent the average and the standard error of the mean of at least three independent experiments.

Row | SMILES | Block of PMA inhibition of LNCaP cell growth ([1]; 300 nM PMA combined with 1000 nM compound, 80 hrs) | Persistence of early morphological change (cell flattening) in LNCaP cells [1] | Effect on LNCaP cell growth ([1]; compound alone, confluency at 80 hrs) | Phosphorylation of PKC delta at Y311 in LNCaP cells [2] | Block of PMA-induced apoptosis in LNCaP cells ([3]; 300 nM PMA combined with 1000 nM compound) | Induction of apoptosis in LNCaP cells [3] | Block of PMA inhibition of U937 cell proliferation [4] | Block of PMA inhibition of U937 cell proliferation ([4]; listed as bryostatin 1) | Inhibition of U937 cell proliferation (total cells as % of control) [4] | Inhibition of U937 cell proliferation (total cells as % of control) ([4]; listed as bryostatin 1)
1 | CCC/C=C/C=C/C(=O)O[C@H]1/C(=C/C(=O)OC)C[C@H]2C[C@H]([C@@H](C)O)OC(=O)C[C@H](O)C[C@@H]3C[C@H](OC(C)=O)C(C)(C)[C@](O)(C[C@@H]4C/C(=C/C(=O)OC)C[C@H](/C=C/C(C)(C)[C@]1(O)O2)O4)O3 [Bryostatin 1] | blocked the inhibition of LNCaP cell growth by PMA | had reversed by 6 hrs after treatment | induced a low level of inhibition of cell growth | only very weak phosphorylation | largely blocked the induction of apoptosis by PMA | had little effect | blocks the effect of the phorbol ester | able to block the effect of PMA in a dose dependent manner | has much less effect on either response | not strongly antiproliferative
2 | CCCCCCCCCCCCCC(=O)O[C@@H]1[C@@H](C)[C@@]2(O)[C@@H](C=C(CO)C[C@]3(O)C(=O)C(C)=C[C@@H]23)[C@@H]2C(C)(C)[C@]12OC(C)=O [PMA, phorbol 12-myristate 13-acetate] | – | still evident at 6 hrs but reversing by 9 hrs | – | rapid phosphorylation | – | induced apoptosis | – | – | inhibits cell proliferation | –
